Data: patent US12577234B2, “Antagonists of the muscarinic acetylcholine receptor M4” (Vanderbilt University, priority 2017, dated 2026)
pIC50: −log10 of the molar value.

Biological target: T1, human mAChR M4 (Homo sapiens, UniProt P08173)
T1 construct: expressed in transfected cells; host or cells: CHO-K1 (ATCC), stably co-expressing chimeric G protein Gqi5
T1 sequence (P08173 1-479): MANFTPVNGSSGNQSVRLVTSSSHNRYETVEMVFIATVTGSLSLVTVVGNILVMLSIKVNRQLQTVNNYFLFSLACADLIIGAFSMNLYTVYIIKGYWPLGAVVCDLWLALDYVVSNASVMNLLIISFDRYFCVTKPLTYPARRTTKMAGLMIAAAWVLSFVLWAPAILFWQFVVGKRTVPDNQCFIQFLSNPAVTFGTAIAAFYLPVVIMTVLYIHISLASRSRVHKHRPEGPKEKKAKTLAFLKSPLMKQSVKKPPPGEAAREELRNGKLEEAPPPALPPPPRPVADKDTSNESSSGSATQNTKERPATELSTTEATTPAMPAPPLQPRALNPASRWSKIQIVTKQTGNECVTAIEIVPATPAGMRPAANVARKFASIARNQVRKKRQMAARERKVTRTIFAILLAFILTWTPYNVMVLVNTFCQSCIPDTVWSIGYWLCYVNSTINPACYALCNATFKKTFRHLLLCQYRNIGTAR
Test: mAChR M4 cell-based functional assay (calcium mobilization, EC80 acetylcholine), human M4
Conditions: for pIC50: M4/Gqi5/CHO-K1 cells, decrease of EC80 acetylcholine response; for Emin: human M4, % ACh maximum at 30 μM
Outline: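 CHO-K1 cells stably expressing human M4 with chimeric Gqi5; intracellular calcium rise read on FDSS as fluorescence static ratio at 1 Hz. Compounds in 10-point 1:3 dilution series; IC50 taken as concentration-dependent decrease of the EC80 acetylcholine response, four-parameter logistic fit.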

Row | Compound | pIC50 (Table 9) | Emin (Table 9) [%] | Human M4 Emin (Table 10) [%] | pIC50 (Table 10)
1 | Cc1cnn(C)c1-c1ccc(NCCC2C[C@@H]3CN(Cc4ccccc4)C[C@@H]3C2)nn1 (stereo partly drawn) [Compound 126, N-[2-[(3aR,6aS)-2-benzyl-3,3a,4,5,6,6a-hexahydro-1H-cyclopenta[c]pyrrol-5-yl]ethyl]-6-(2,4-dimethylpyrazol-3-yl)pyridazin-3-amine] | 7.64 | 3.89 |  | 
2 | Cc1nn(C)cc1-c1ccc(O[C@@H]2C[C@@H]3CN(CCC(C)(C)C)C[C@@H]3C2)nn1 [Compound 48, (3aR,5r,6aS)-2-(3,3-dimethylbutyl)-5-[6-(1,3-dimethylpyrazol-4-yl)pyridazin-3-yl]oxy-3,3a,4,5,6,6a-hexahydro-1H-cyclopenta[c]pyrrole] | 6.44 | 3.79 |  | 
3 | Cc1cnn(C)c1-c1ccc(O[C@H]2C[C@@H]3CN(CCC(C)(C)C)C[C@@H]3C2)nn1 [Compound 135, (3aR,5s,6aS)-2-(3,3-dimethylbutyl)-5-[6-(2,4-dimethylpyrazol-3-yl)pyridazin-3-yl]oxy-3,3a,4,5,6,6a-hexahydro-1H-cyclopenta[c]pyrrole] |  |  | 5 | 6.54
4 | Cc1nn(C)cc1-c1ccc(NC[C@H]2C[C@@H]3CN(CC4CCCCC4)C[C@@H]3C2)nn1 [Compound 72, N-[[(3aR,5s,6aS)-2-(cyclohexylmethyl)-3,3a,4,5,6,6a-hexahydro-1H-cyclopenta[c]pyrrol-5-yl]methyl]-6-(1,3-dimethylpyrazol-4-yl)pyridazin-3-amine] | 6.70 | 4.02 |  | 
5 | Fc1ccc(Cl)c(-c2ccc(OCC3C[C@@H]4CN(CC5CCOCC5)C[C@@H]4C3)nn2)c1 (stereo partly drawn) [Compound 112, (3aR,6aS)-5-[[6-(2-chloro-5-fluoro-phenyl)pyridazin-3-yl]oxymethyl]-2-(tetrahydropyran-4-ylmethyl)-3,3a,4,5,6,6a-hexahydro-1H-cyclopenta[c]pyrrole] | 6.22 | 4.59 |  | 
6 | Fc1ccc(Cl)c(-c2ccc(N[C@H]3C[C@@H]4CN(Cc5cnccn5)C[C@@H]4C3)nn2)c1 [Compound 170, (3aR,5s,6aS)-N-[6-(2-chloro-5-fluoro-phenyl)pyridazin-3-yl]-2-(pyrazin-2-ylmethyl)-3,3a,4,5,6,6a-hexahydro-1H-cyclopenta[c]pyrrol-5-amine] |  |  | 5 | 7.27
7 | Cc1nn(C)cc1-c1ccc(O[C@@H]2C[C@@H]3CN(CC(C)C(C)(C)C)C[C@@H]3C2)nn1 (stereo partly drawn) [Compound 46, (3aR,5r,6aS)-5-[6-(1,3-Dimethylpyrazol-4-yl)pyridazin-3-yl]oxy-2-(2,3,3-trimethylbutyl)-3,3a,4,5,6,6a-hexahydro-1H-cyclopenta[c]pyrrole] | 5.95 | 4.08 |  | 
8 | Fc1ccc(Cl)c(-c2ccc(OCC3C[C@@H]4CN(CC5CCCOC5)C[C@@H]4C3)nn2)c1 (stereo partly drawn) [Compound 113, (3aR,6aS)-5-[[6-(2-chloro-5-fluoro-phenyl)pyridazin-3-yl]oxymethyl]-2-(tetrahydropyran-3-ylmethyl)-3,3a,4,5,6,6a-hexahydro-1H-cyclopenta[c]pyrrole] | 6.07 | 4.76 |  | 
9 | Cc1nn(C)cc1-c1ccc(N[C@@H]2C[C@@H]3CN(CC4CCCCCC4)C[C@@H]3C2)c(F)c1F [Compound 44, (3aR,5r,6aS)-2-(cycloheptylmethyl)-N-[4-(1,3-dimethylpyrazol-4-yl)-2,3-difluoro-phenyl]-3,3a,4,5,6,6a-hexahydro-1H-cyclopenta[c]pyrrol-5-amine] | 5.67 | 5.01 |  | 
10 | CCCC(C)CN1C[C@H]2C[C@H](Nc3ccc(-c4cn(C)nc4C)nn3)C[C@H]2C1 (some centres unmarked) [compound 14] | 8.32 |  |  | 
11 | Fc1ccc(Cl)c(-c2ccc(N[C@H]3C[C@@H]4CN(Cc5ccc6c(c5)OCO6)C[C@@H]4C3)nn2)c1 [Compound 166, (3aR,5s,6a5)-2-(1,3-benzodioxol-5-ylmethyl)-N-[6-(2-chloro-5-fluoro-phenyl)pyridazin-3-yl]-3,3a,4,5,6,6a-hexahydro-1H-cyclopenta[c]pyrrol-5-amine] |  |  | 2 | 8.21
12 | Fc1cccc(Cl)c1-c1ccc(N[C@H]2C[C@@H]3CN(CC4CCOCC4)C[C@@H]3C2)nn1 [Compound 204, (3aR,5s,6aS)-N-[6-(2-chloro-6-fluoro-phenyl)pyridazin-3-yl]-2-(tetrahydropyran-4-ylmethyl)-3,3a,4,5,6,6a-hexahydro-1H-cyclopenta[c]pyrrol-5-amine] |  |  | 4 | 9.36

More lines, now with the values ahead:

Row | pIC50 (Table 9) | Emin (Table 9) [%] | Human M4 Emin (Table 10) [%] | pIC50 (Table 10) | Compound
13 |  |  | 4 | 9.53 | Cc1ccc(F)cc1-c1ccc(N[C@H]2C[C@@H]3CN(CC4CCOCC4)C[C@@H]3C2)nn1 [Compound 214, (3aR,5s,6aS)-N-[6-(5-fluoro-2-methyl-phenyl)pyridazin-3-yl]-2-(tetrahydropyran-4-ylmethyl)-3,3a,4,5,6,6a-hexahydro-1H-cyclopenta[c]pyrrol-5-amine]
14 | 5.25 | 9.93 |  |  | Fc1ccc(Cl)c(-c2ccc(OCC3C[C@@H]4CN(Cc5ccccc5F)C[C@@H]4C3)nn2)c1 (stereo partly drawn) [Compound 115, (3aR,6aS)-5-[[6-(2-chloro-5-fluoro-phenyl)pyridazin-3-yl]oxymethyl]-2-[(2-fluorophenyl)methyl]-3,3a,4,5,6,6a-hexahydro-1H-cyclopenta[c]pyrrole]
15 | 6.04 | 4.54 |  |  | CCC(C)CN1C[C@H]2CC(COc3ccc(-c4c(C)cnn4C)nn3)C[C@H]2C1 (stereo partly drawn) [Compound 81, (3aR,6aS)-5-[[6-(2,4-dimethylpyrazol-3-yl)pyridazin-3-yl]oxymethyl]-2-(2-methylbutyl)-3,3a,4,5,6,6a-hexahydro-1H-cyclopenta[c]pyrrole]
16 | 6.37 | 3.60 |  |  | CC(CN1C[C@H]2C[C@@H](Oc3ccc(-c4cc(F)ccc4Cl)nn3)C[C@H]2C1)C(C)(C)C (stereo partly drawn) [Compound 55, (3aR,5r,6aS)-5-[6-(2-chloro-5-fluoro-phenyl)pyridazin-3-yl]oxy-2-(2,3,3-trimethylbutyl)-3,3a,4,5,6,6a-hexahydro-1H-cyclopenta[c]pyrrole]
17 | 5.08 | 26.8 |  |  | CC(=O)Nc1ccc(-c2ccc(N[C@@H]3C[C@@H]4CN(CCC(C)(C)C)C[C@@H]4C3)nn2)cc1 [Compound 39, N-[4-[6-[[(3aR,5r,6aS)-2-(3,3-Dimethylbutyl)-3,3a,4,5,6,6a-hexahydro-1H-cyclopenta[c]pyrrol-5-yl]amino]pyridazin-3-yl]phenyl]acetamide]
18 |  |  | 5 | 9.24 | COc1ccccc1-c1ccc(N[C@H]2C[C@@H]3CN(CC4CCOCC4)C[C@@H]3C2)nn1 [Compound 199, (3aR,5s,6aS)-N-[6-(2-methoxyphenyl)pyridazin-3-yl]-2-(tetrahydropyran-4-ylmethyl)-3,3a,4,5,6,6a-hexahydro-1H-cyclopenta[c]pyrrol-5-amine]
19 |  |  | 7 | 8.45 | COc1ccc(-c2ccc(N[C@H]3C[C@@H]4CN(CC5CCOCC5)C[C@@H]4C3)nn2)cc1 [Compound 201, (3aR,5s,6aS)-N-[6-(4-methoxyphenyl)pyridazin-3-yl]-2-(tetrahydropyran-4-ylmethyl)-3,3a,4,5,6,6a-hexahydro-1H-cyclopenta[c]pyrrol-5-amine]
20 | 7.72 | 3.32 |  |  | Cc1nn(C)cc1-c1ccc(NCC2C[C@@H]3CN(CC4CC5C=CC4C5)C[C@@H]3C2)nn1 (stereo partly drawn) [Compound 62, N-[[(3aR,6aS)-2-(5-bicyclo[2.2.1]hept-2-enylmethyl)-3,3a,4,5,6,6a-hexahydro-1H-cyclopenta[c]pyrrol-5-yl]methyl]-6-(1,3-dimethylpyrazol-4-yl)pyridazin-3-amine]
21 |  |  | 3 | 6.79 | Cc1nn(C)cc1-c1ccc(N[C@H]2C[C@@H]3CN(CC45CC6CC(CC(C6)C4)C5)C[C@@H]3C2)nc1 [Compound 150, (3aR,5s,6aS)-2-(1-adamantylmethyl)-N-[5-(1,3-dimethylpyrazol-4-yl)-2-pyridyl]-3,3a,4,5,6,6a-hexahydro-1H-cyclopenta[c]pyrrol-5-amine]
22 |  |  | 4 | 6.00 | CC(=O)Nc1ccc(-c2ccc(N[C@H]3C[C@@H]4CN(CCC(C)(C)C)C[C@@H]4C3)c(F)c2F)cc1 [Compound 148, N-[4-[4-[[(3aR,5s,6aS)-2-(3,3-dimethylbutyl)-3,3a,4,5,6,6a-hexahydro-1H-cyclopenta[c]pyrrol-5-yl]amino]-2,3-difluoro-phenyl]phenyl]acetamide]
23 |  |  | 6 | 7.39 | c1cc(N2CCCC2)nnc1N[C@H]1C[C@@H]2CN(CC3CCOCC3)C[C@@H]2C1 [Compound 192, (3aR,5s,6aS)-N-(6-pyrrolidin-1-ylpyridazin-3-yl)-2-(tetrahydropyran-4-ylmethyl)-3,3a,4,5,6,6a-hexahydro-1H-cyclopenta[c]pyrrol-5-amine]
24 | 5.34 | 14.2 |  |  | Cc1cnn(C)c1-c1ccc(OCC2C[C@@H]3CN(CC4CCCOC4)C[C@@H]3C2)nn1 (stereo partly drawn) [Compound 85, (3aR,6aS)-5-[[6-(2,4-dimethylpyrazol-3-yl)pyridazin-3-yl]oxymethyl]-2-(tetrahydropyran-3-ylmethyl)-3,3a,4,5,6,6a-hexahydro-1H-cyclopenta[c]pyrrole]
